Laboratory results taken from US20210047324A1 (Aptinyx Inc., priority 2018, published 2021).
Several values for one entry are separate records, joined by “and”; a condition that tells them apart may be missing. Equal entries are not always repeated.

Assays:
[1] = target: T1, NMDAR2A (Homo sapiens, UniProt Q12879); assay: NMDAR agonist assay, [3H]MK-801 binding, NMDAR2A expressing HEK cell membranes; assay type: biochemical; design: key to NMDAR2A B: log EC50: 0=−; ≥1×10^−9 M (e.g., −8)=+; <1×10^−9 M (e.g., −10)=++; details: 50 μM glutamate; for EC50: read-out: NMDAR2A B: log EC50 (converted); for Emax: 0.25 h, read-out: NMDAR2A A: % maximal [3H]MK-801 binding relative to 1 mM glycine; for NMDAR2A A: % maximal [3H]MK-801 binding relative to 1 mM glycine / Emax: relative to 1 mM glycine
T1 construct: expressed in transfected cells; host or cells: HEK cells (membrane extract)
Experimental: (§1) Assays were conducted as described by Moskal et al., “GLYX-13: a monoclonal antibody-derived peptide that acts as an N-methyl-D-aspartate receptor modulator,” Neuropharmacology, 49, 1077-87, 2005. These studies were designed to determine if the test compounds act to facilitate NMDAR activation in NMDAR2A, NMDAR2B, NMDAR2C or NMDAR2D expressing HEK cell membranes as measured by increases in [^3H]MK-801 binding.
(§2) In the assay, 300 μg of NMDAR expressing HEK cell membrane extract protein was preincubated for 15 minutes at […] in the presence of saturating concentrations of glutamate (50 μM) and varying concentrations of test compound (1×10^−15M-1×10^−7M), or 1 mM glycine. Following the addition of 0.3 μCi of [3H]MK-801 (22.5 Ci/mmol), reactions were again incubated for 15 minutes at 25° C. (nonequilibrium conditions). Bound and free [3H]MK-801 were separated via rapid filtration using a Brandel apparatus.
(§3) In analyzing the data, the DPM (disintegrations per minute) of [3H]MK-801 remaining on the filter were measured for each concentration of test compound or for 1 mM glycine. The DPM values for each concentration of a ligand (N=2) were averaged. The baseline value was determined from the best fit curve of the DPM values modeled using the GraphPad program and the log(agonist) vs. response (three parameters) algorithm was then subtracted from all points in the dataset. The % maximal [^3H]MK-801 binding was then calculated relative to that of 1 mM glycine: all baseline subtracted DPM values were divided by the average value for 1 mM glycine. The EC50 and % maximal activity were then obtained from the best fit curve of the % maximal [3H]MK-801 binding data modelled using the GraphPad program and the log(agonist) vs. response (three parameters) algorithm.
(§4) The tables below summarize the results for the wild type […] NMDAR2A, NMDAR2B, NMDAR2C, and NMDAR2D, and whether the compound is not an agonist (−), is an agonist (+), or is a strong agonist (++), where column A is based on the % maximal [3H]MK-801 binding relative to 1 mM glycine (−=0; <100%=+; and >100%=++); and column B is based on log EC50 values (0=−; ≥1×10^−9 M (e.g., −8)=+; and <1×10^−9 M (e.g., −10)=++).

[2] = target: T2, NMDAR2B (Homo sapiens, UniProt Q13224); assay: NMDAR agonist assay, [3H]MK-801 binding, NMDAR2B expressing HEK cell membranes; assay type: biochemical; design: key to NMDAR2B B: log EC50: 0=−; ≥1×10^−9 M (e.g., −8)=+; <1×10^−9 M (e.g., −10)=++; details: 50 μM glutamate; for EC50: read-out: NMDAR2B B: log EC50 (converted); for Emax / NMDAR2B A: % maximal [3H]MK-801 binding relative to 1 mM glycine: relative to 1 mM glycine; for Emax: read-out: NMDAR2B A: % maximal [3H]MK-801 binding relative to 1 mM glycine
T2 construct: expressed in transfected cells; host or cells: HEK cells (membrane extract)
Experimental: as §1, §2, §3, §4

[3] = IV pharmacokinetics in Sprague Dawley rats; assay type: in vivo; details: Sprague-Dawley, rat, in vivo, iv, 2 mg/kg, normal saline; for Cmax: read-out: Cmax; for Vd: read-out: Vss
Experimental: Sprague Dawley rats were dosed intravenously using a normal saline formulation containing 2 mg/kg of the compounds identified in the below table. The table below summarizes the results of the IV pharmacokinetics.

[4] = Oral pharmacokinetics in Sprague Dawley rats (plasma, brain, CSF); assay type: in vivo; details: rat, 10 mg/kg; for Tmax / AUC(0-t) / bioavailability / Cmax: Sprague-Dawley, po, plasma; for Tmax / AUC(0-t) / Cmax / CSF Cmax / Brain Cmax: per os; for Tmax: read-out: Tmax; for bioavailability: per os 10 mg/kg; for Cmax: read-out: Cmax
Experimental: In another experiment, Sprague Dawley rats were dosed per os (oral gavage) using a normal saline formulation containing 10 mg/kg of the compounds identified in the table below. Plasma, brain, and CSF samples were analyzed at various time points over a 24 hour period. The table below summarizes the results of the oral pharmacokinetics, where the first three values (Tmax, Cmax and AUClast) are plasma values.

[5] = Microsomal stability (Human); assay type: in vitro ADME; details: after 60 minutes
Experimental: (§5) Microsomal stability of disclosed compounds was investigated. The following table indicates the percent of compound remaining after 60 minutes.

[6] = Microsomal stability (Rat); assay type: in vitro ADME; details: after 60 minutes
Experimental: as §5

[7] = system: Sprague Dawley rats; assay: Porsolt forced swim test; assay type: in vivo; details: 1 h post-dose, 0.1 mg/kg
Experimental: A non-clinical in vivo pharmacology study (Porsolt assay) was performed to measure antidepressant-like effects. The study allowed for the evaluation of the effects of each compound on the Porsolt forced swim test as assessed by the rats' response (reduced floating time) during a 5-minute swimming test.
Male 2-3 month old Sprague Dawley rats were used (Harlan, Indianapolis, Ind.). Rats were housed in Lucite cages with aspen wood chip bedding, maintained on a 12:12 light:dark cycle (lights on at 5 AM), and given ad libitum access to Purina lab chow (USA) and tap water throughout the study.
The Porsolt forced swim test adapted for use in rats was performed as described by Burgdorf et al., (The long-lasting antidepressant effects of rapastinel (GLYX-13) are associated with a metaplasticity process in the medial prefrontal cortex and hippocampus. Neuroscience 308:202-211, 2015). Animals were placed in a 46 cm tall×20 cm in diameter clear glass tube filled to 30 cm with tap water (23±1° C.) for 15 min on the first day (habituation) and 5 min on the subsequent test day. Animals were tested 1 h or 24 h post-dosing with the test compounds or vehicle control (0.5% sodium carboxymethyl cellulose in 0.9% sterile saline). A subset of compounds tested at 1 h post-dosing was tested again 1 wk post-dosing. Animals received a 15 min habituation session 1 day before the first 5 min test. Water was changed after every other animal. Animals were videotaped, and floating time as defined as the minimal amount of effort required to keep the animals head above water was scored offline by a blinded experimenter with high inter-rater reliability (Pearson's r >0.9).

[8] = Plasma stability (Human); assay type: in vitro ADME; details: after 60 minutes
Experimental: (§6) Plasma stability of disclosed compounds was investigated. The following table indicates the percent of compound remaining after 60 minutes.

[9] = Plasma stability (Rat); assay type: in vitro ADME; details: after 60 minutes
Experimental: as §6

T1 sequence (Q12879 23-1464, species assumed, other chains not shown): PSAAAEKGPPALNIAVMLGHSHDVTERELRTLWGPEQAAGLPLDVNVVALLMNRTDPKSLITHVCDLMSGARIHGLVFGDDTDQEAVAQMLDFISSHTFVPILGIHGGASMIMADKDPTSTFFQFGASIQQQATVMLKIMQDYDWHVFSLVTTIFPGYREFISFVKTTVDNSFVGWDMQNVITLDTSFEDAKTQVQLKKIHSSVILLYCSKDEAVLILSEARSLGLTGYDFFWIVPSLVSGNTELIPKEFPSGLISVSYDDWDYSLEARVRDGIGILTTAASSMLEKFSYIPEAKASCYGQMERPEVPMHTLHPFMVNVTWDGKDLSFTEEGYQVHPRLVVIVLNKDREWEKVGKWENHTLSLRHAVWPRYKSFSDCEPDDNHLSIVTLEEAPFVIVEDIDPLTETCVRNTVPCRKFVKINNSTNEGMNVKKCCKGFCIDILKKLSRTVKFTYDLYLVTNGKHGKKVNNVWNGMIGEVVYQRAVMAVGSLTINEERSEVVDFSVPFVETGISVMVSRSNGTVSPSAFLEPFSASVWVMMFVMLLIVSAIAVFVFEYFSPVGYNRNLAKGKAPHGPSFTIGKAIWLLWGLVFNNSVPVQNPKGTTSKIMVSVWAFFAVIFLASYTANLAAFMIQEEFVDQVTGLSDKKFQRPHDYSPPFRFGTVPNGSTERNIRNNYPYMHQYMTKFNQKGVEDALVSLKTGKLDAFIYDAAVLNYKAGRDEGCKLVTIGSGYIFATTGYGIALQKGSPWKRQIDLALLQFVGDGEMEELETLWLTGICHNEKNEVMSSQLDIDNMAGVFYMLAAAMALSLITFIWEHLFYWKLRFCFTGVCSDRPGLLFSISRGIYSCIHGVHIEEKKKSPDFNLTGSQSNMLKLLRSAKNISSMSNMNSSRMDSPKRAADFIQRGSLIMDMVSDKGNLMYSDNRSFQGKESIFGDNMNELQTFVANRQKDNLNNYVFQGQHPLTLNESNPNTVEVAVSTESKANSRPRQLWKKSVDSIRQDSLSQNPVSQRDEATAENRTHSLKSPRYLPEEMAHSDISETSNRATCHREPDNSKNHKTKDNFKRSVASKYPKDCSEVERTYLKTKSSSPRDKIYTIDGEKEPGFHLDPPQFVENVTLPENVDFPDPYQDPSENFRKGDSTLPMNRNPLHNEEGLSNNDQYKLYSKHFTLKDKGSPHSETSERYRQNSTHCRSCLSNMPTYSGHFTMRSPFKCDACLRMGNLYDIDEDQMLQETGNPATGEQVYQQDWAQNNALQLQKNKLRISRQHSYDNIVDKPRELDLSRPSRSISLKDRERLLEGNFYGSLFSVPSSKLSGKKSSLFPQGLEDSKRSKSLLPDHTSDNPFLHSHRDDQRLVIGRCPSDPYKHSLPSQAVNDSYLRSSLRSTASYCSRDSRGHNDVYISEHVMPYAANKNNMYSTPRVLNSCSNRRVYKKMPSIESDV
T2 sequence (Q13224 27-1484, species assumed, other chains not shown): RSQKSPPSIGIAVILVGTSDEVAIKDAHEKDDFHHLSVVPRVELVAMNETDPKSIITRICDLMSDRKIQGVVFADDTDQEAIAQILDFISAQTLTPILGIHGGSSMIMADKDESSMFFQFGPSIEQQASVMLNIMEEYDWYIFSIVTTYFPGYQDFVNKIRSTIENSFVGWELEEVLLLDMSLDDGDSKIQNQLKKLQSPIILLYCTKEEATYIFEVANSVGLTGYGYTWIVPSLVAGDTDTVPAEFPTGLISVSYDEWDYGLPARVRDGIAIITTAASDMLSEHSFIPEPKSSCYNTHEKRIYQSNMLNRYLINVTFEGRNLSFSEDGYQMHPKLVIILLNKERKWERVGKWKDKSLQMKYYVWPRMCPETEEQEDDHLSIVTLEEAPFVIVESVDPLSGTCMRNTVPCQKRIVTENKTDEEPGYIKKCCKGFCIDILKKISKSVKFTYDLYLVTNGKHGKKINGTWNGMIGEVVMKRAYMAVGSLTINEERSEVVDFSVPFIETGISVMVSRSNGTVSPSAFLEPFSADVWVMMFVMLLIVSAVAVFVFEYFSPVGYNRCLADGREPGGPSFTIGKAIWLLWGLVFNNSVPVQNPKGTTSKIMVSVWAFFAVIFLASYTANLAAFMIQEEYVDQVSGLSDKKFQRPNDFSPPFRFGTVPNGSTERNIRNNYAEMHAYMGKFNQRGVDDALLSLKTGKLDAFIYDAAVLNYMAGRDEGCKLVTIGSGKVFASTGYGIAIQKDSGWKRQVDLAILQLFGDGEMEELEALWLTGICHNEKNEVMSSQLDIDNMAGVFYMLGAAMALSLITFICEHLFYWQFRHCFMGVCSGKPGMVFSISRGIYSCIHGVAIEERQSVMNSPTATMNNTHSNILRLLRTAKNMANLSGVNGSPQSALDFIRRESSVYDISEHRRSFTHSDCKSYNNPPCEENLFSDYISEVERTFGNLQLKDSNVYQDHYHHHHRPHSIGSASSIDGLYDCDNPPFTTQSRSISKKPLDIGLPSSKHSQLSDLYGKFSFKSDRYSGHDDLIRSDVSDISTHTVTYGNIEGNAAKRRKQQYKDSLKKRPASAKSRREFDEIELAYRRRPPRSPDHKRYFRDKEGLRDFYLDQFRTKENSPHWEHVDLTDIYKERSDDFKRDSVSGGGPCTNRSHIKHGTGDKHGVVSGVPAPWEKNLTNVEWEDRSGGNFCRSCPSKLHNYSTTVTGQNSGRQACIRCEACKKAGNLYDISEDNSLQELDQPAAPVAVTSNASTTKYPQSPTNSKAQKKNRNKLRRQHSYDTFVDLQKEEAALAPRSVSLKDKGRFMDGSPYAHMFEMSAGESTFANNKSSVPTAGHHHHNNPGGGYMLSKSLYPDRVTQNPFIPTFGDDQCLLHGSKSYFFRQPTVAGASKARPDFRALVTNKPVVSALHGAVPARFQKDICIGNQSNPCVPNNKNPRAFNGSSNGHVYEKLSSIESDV

## O=C1NCCCCC12CCCNC2 (single isomer, unassigned) [CG, 2,8-diazaspiro[5.6]dodecan-7-one]
[1]
  EC50: < 1 nM
[2]
  EC50: < 1 nM

## CN1CC=CCC2(CCCN2C)C1=O (stereo not drawn) [listing 1 of 2 here]
[1]
  NMDAR2A B: log EC50: −
  NMDAR2A A: % maximal [3H]MK-801 binding relative to 1 mM glycine: − (−=0)
[2]
  NMDAR2B B: log EC50: −
  Emax: 0%

## CC(C)C(=O)N1CCC2(CCCN2C(=O)C(C)C)C1=O (single isomer, unassigned) [GU-2, 1,1′-(6-oxo-1,7-diazaspiro[4.4]nonane-1,7-diyl)bis(2-methylpropan-1-one)]
[1]
  EC50: < 1 nM
  NMDAR2A A: % maximal [3H]MK-801 binding relative to 1 mM glycine: + (<100%=+)
[2]
  EC50: < 1 nM
  NMDAR2B A: % maximal [3H]MK-801 binding relative to 1 mM glycine: + (<100%=+)

## CN1CC=CCC2(CCCN2Cc2ccccc2)C1=O (single isomer, unassigned) [GT-2, 1-benzyl-7-methyl-1,7-diazaspiro[4.6]undec-9-en-6-one]
[1]
  EC50: < 1 nM
[2]
  EC50: ≥ 1 nM

## O=C1NCCCC12CCCNC2 (single isomer, unassigned) [CD, 2,8-diazaspiro[5.5]undecan-1-one]
[1]
  EC50: < 1 nM
  Emax: < 100%
[2]
  EC50: < 1 nM
  Emax: < 100%

## CC(C)(C)OC(=O)N1CCCCCC12CNC2=O (single isomer, unassigned) [EI-2, tert-butyl 1-oxo-2,5-diazaspiro[3.6]decane-5-carboxylate]
[1]
  EC50: < 1 nM

## CN1CC=CCC2(CCCN2C)C1=O (stereo not drawn) [listing 2 of 2 here]
[1]
  EC50: < 1 nM
  NMDAR2A A: % maximal [3H]MK-801 binding relative to 1 mM glycine: + (<100%=+)
[2]
  NMDAR2B B: log EC50: −
  NMDAR2B A: % maximal [3H]MK-801 binding relative to 1 mM glycine: − (−=0)

## CC(C)C(=O)N1CCCC12CC=CCNC2=O (single isomer, unassigned) [GH-2, 1-isobutyryl-1,7-diazaspiro[4.6]undec-9-en-6-one]
[1]
  EC50: < 1 nM
  NMDAR2A A: % maximal [3H]MK-801 binding relative to 1 mM glycine: + (<100%=+)
[2]
  EC50: < 1 nM
  NMDAR2B A: % maximal [3H]MK-801 binding relative to 1 mM glycine: ++ (>100%=++)
[3]
  AUC(0-t): 1990 ng·h/mL
  clearance: 16.7 mL/min/kg
  half-life: 25.8 min
  Cmax: 1500 ng/mL
  Vd: 0.75 L/kg
[4]
  Tmax: 25.2 min
  AUC(0-t): 11300 ng·h/mL
  bioavailability: 100%
  Cmax: 5300 ng/mL
  CSF Cmax: 2296.73 ng/mL
  Brain Cmax: 1424.03 ng/mL
[5]
  Microsomal (Human): percent of compound remaining: 87%
[6]
  Microsomal (Rat): percent of compound remaining: 104%

## O=C1N(Cc2ccc(F)cc2)CC=CCC12CCCN2 (single isomer, unassigned) [GK-1, 7-(4-fluorobenzyl)-1,7-diazaspiro[4.6]undec-9-en-6-one]
[1]
  EC50: < 1 nM
  NMDAR2A A: % maximal [3H]MK-801 binding relative to 1 mM glycine: + (<100%=+)
[2]
  EC50: < 1 nM
  Emax: > 100%
[3]
  AUC(0-t): 335 ng·h/mL
  clearance: 98.4 mL/min/kg
  half-life: 32.4 min
  Cmax: 854 ng/mL
  Vd: 3.01 L/kg
[4]
  Tmax: 30 min
  AUC(0-t): 718 ng·h/mL
  bioavailability: 43%
  Cmax: 642 ng/mL
  CSF Cmax: 322.45 ng/mL
  Brain Cmax: 3368.95 ng/mL
[7]
  % reduction in float time: 24%
  Significance vs. vehicle: No

## O=C1NCC=CCC12CC(F)(F)CN2 (single isomer, unassigned) [GL-1, 3,3-difluoro-1,7-diazaspiro[4.6]undec-9-en-6-one]
[1]
  EC50: < 1 nM
  Emax: < 100%
[2]
  EC50: < 1 nM
  Emax: < 100%

## O=C1NCCCCC12CCCCN2 (single isomer, unassigned) [BA, 1,8-diazaspiro[5.6]dodecan-7-one]
[1]
  EC50: < 1 nM
[2]
  EC50: < 1 nM

## CN1CCCC12CC=CCNC2=O (single isomer, unassigned) [GC-1, 1-methyl-1,7-diazaspiro[4.6]undec-9-en-6-one]
[1]
  EC50: < 1 nM
  Emax: < 100%
[2]
  EC50: < 1 nM
  Emax: > 100%
[3]
  AUC(0-t): 1020 ng·h/mL
  clearance: 32.2 mL/min/kg
  half-life: 40.8 min
  Cmax: 1210 ng/mL
  Vd: 1.78 L/kg
[4]
  Tmax: 25.2 min
  AUC(0-t): 4430 ng·h/mL
  bioavailability: 87%
  Cmax: 2400 ng/mL
  CSF Cmax: 744.03 ng/mL
  Brain Cmax: 2578.7 ng/mL
[5]
  Microsomal (Human): percent of compound remaining: 115% and 67%
[8]
  Plasma (Human): percent of compound remaining: 97%
[9]
  Plasma (Rat): percent of compound remaining: 89%

## CN1CCCC12CC=CCNC2=O (single isomer, unassigned) [GC-2, 1-methyl-1,7-diazaspiro[4.6]undec-9-en-6-one]
[1]
  EC50: ≥ 1 nM
  NMDAR2A A: % maximal [3H]MK-801 binding relative to 1 mM glycine: + (<100%=+)
[2]
  EC50: < 1 nM
  NMDAR2B A: % maximal [3H]MK-801 binding relative to 1 mM glycine: + (<100%=+)
[5]
  Microsomal (Human): percent of compound remaining: 82% and 100%
[8]
  Plasma (Human): percent of compound remaining: 98%
[9]
  Plasma (Rat): percent of compound remaining: 103%

## O=C1NCCCC12CCCNC2 (single isomer, unassigned) [CE, 2,8-diazaspiro[5.5]undecan-1-one]
[1]
  EC50: < 1 nM
[2]
  EC50: < 1 nM

## CC(=O)N1CCCC12CC=CCNC2=O (single isomer, unassigned) [GG-1, 1-acetyl-1,7-diazaspiro[4.6]undec-9-en-6-one]
[1]
  EC50: < 1 nM
  Emax: < 100%
[2]
  EC50: < 1 nM
  Emax: < 100%

## O=C1NCCCC12CCCN2 (stereo not drawn) [EU-1, 1,7-diazaspiro[4.5]decan-6-one]
[1]
  NMDAR2A B: log EC50: −
  Emax: 0%
[2]
  EC50: < 1 nM
  Emax: < 100%
